These results are taken from US10472347B2, “Aminopyrazine compounds with A2A antagonist properties” (Merck Sharp & Dohme Corp., priority 2014, dated 2019).

The assay has as its target T1, human A2a receptor (Homo sapiens, UniProt P29274).
T1 construct: purchased Perkin-Elmer RBHA2AM400UA; host or cells: HEK293 cells (membranes)
In words: A2a competition binding assay, Scintillation Proximity technology. To be noted: membranes from HEK293 cells expressing human A2a receptor; Ki by Cheng-Prusoff equation. The method in brief:
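SPA competition: 0.5 nM tritiated pyrazolotriazolopyrimidine ligand displaced by compound at 3000 to 0.15 nM, 1 h room temperature, human A2a HEK293 membranes pretreated with adenosine deaminase, PBS/10 mM MgCl2 buffer. CGS15943 1 μM defined non-specific binding; EC50 converted to Ki via Cheng-Prusoff.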

T1 sequence (P29274 whole entry): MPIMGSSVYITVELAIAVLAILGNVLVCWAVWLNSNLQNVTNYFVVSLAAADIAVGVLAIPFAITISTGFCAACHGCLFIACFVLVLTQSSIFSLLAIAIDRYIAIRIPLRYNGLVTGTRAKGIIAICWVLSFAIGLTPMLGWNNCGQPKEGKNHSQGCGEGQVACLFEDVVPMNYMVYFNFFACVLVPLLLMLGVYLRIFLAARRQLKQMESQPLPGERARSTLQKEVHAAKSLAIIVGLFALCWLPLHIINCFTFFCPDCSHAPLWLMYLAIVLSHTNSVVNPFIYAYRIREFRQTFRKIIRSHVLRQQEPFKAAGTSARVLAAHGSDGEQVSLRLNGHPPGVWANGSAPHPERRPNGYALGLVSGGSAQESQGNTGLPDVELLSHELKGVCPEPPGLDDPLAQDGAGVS

In turn, `Cc1nc(C(=O)NC2CCC(F)(F)C2)c(N)nc1-c1ncco1` (stereo not shown) [Ex-115, 3-amino-N-(3,3-difluorocyclopentyl)-6-methyl-5-(1,3-oxazol-2-yl)pyrazine-2-carboxamide] showed a Ki of 8.74 nM.
The same measure for `Cc1nc(C(=O)NC2CCCN(CC(F)(F)F)C2)c(N)nc1-c1ncco1` (stereo not shown) [Ex-116, 3-amino-6-methyl-5-(1,3-oxazol-2-yl)-N-[1-(2,2,2-trifluoroethyl)piperidin-3-yl]pyrazine-2-carboxamide]: 21.4 nM; for `Cc1nc(C(=O)NC2CCCNC2)c(N)nc1-c1ncco1` (stereo not shown) [Ex-117, 3-amino-6-methyl-5-(1,3-oxazol-2-yl)-N-piperidin-3-ylpyrazine-2-carboxamide]: 104 nM.
The same measure for `Cc1nc(C(=O)N[C@H]2CC[C@H](C(F)(F)F)CC2)c(N)nc1-c1ncco1` [Ex-118, 3-amino-6-methyl-5-(1,3-oxaozl-2-yl)-N-[trans-4-(trifluoromethyl)cyclohexyl] pyrazine-2-carboxamide]: 31.7 nM; for `Cc1nc(C(=O)NCc2cccc(C(C)(C)O)n2)c(N)nc1-c1ncco1` [Ex-119]: 6.24 nM; for `Cc1cn(C)c(CNC(=O)c2nc(C)c(-c3ncco3)nc2N)n1` [Ex-120, 3-amino-N-[(1,4-dimethyl-1H-imidazol-2-yl)methyl]-6-methyl-5-(1,3-oxazol-2-yl)pyrazine-2-carboxamide]: 5.81 nM.
Then `Cc1nc(C(=O)NCc2cccc(C(F)(F)F)n2)c(N)nc1-c1ncco1` [Ex-121, 3-amino-6-methyl-5-(1,3-oxazol-2-yl)-N-{[6-(trifluoromethyl)pyridin-2-yl]methyl}pyrazine-2-carboxamide], with 3.18 nM.
On to `COCc1cccc(CNC(=O)c2nc(C)c(-c3ncco3)nc2N)n1` [Ex-122, 3-amino-N-{[6-(methoxymethyl)pyridin-2-yl]methyl}-6-methyl-5-(1,3-oxazol-2-yl)pyrazine-2-carboxamide], for which the affinity, expressed as Ki, was 2.91 nM.
Then `COCCNC(=O)c1nc(C)c(-c2ncco2)nc1N` [Ex-123, 3-amino-N-(2-methoxyethyl)-6-methyl-5-(1,3-oxazol-2-yl)pyrazine-2-carboxamide], with 17.4 nM; and `COc1ncccc1CNC(=O)c1nc(C)c(-c2ncco2)nc1N` [Ex-124, 3-amino-N-[(2-methoxypyridin-3-yl)methyl]-6-methyl-5-(1,3-oxazol-2-yl)pyrazine-2-carboxamide], with 1.77 nM.
The same measure for `Cc1nc(C(=O)N2CCc3cccnc3C2)c(N)nc1-c1ncco1` [Ex-125, 3-(5,8-dihydro-1,7-naphthyridin-7(6H)-ylcarbonyl)-5-methyl-6-(1,3-oxazol-2-yl)pyrazin-2-amine]: 18.8 nM; for `Cc1nc(C(=O)NCc2ncc(C(F)(F)F)cn2)c(N)nc1-c1ncco1` [Ex-126, 3-amino-6-methyl-5-(1,3-oxazol-2-yl)-N-{[5-(trifluoromethyl)pyrimidin-2-yl]methyl}pyrazine-2-carboxamide]: 83 nM; for `Cc1nc(C(=O)NCc2nccn2C2CCC2)c(N)nc1-c1ncco1` [Ex-127, 3-amino-N-[(1-cyclobutyl-1H-imidazol-2-yl)methyl]-6-methyl-5-(1,3-oxazol-2-yl)pyrazine-2-carboxamide]: 0.279 nM.
Regarding `Cc1nc(C(=O)NCC2CC2)c(N)nc1-c1ncco1` [Ex-128, 3-amino-N-(cyclopropylmethyl)-6-methyl-5-(1,3,-oxazol-2-yl)pyrazine-2-carboxamide], the Ki amounted to 12.5 nM.
Then `Cc1nc(C(=O)NCc2cc(F)ccc2O)c(N)nc1-c1ncco1` [Ex-129, 3-amino-N-(5-fluoro-2-hydroxybenzyl)-6-methyl-5-(1,3-oxazol-2-yl)pyrazine-2-carboxamide], with 0.198 nM; and `Cc1nc(C(=O)N[C@H]2c3ccccc3C[C@@H]2O)c(N)nc1-c1ncco1` [Ex-130, 3-amino-N-[(1S,2S)-2-hydroxy-2,3-dihydro-1H-inden-1-yl]-6-methyl-5-(1,3-oxazol-2-yl)pyrazine-2-carboxamide], with 3.41 nM.
Then `Cc1nc(C(=O)N2CCC2c2ccccc2)c(N)nc1-c1ncco1` (stereo not shown) [Ex-131, 5-methyl-6-(1,3-oxazol-2-yl)-3-[(2-phenylazetidin-1-yl)carbonyl]pyrazin-2-amine], with 10.3 nM.
The same measure for `Cc1nc(C(=O)NCc2cccs2)c(N)nc1-c1ncco1` [Ex-132, 3-amino-6-methyl-5-(1,3-oxazol-2-yl)-N-(thiophen-2-ylmethyl)pyrazine-2-carboxamide]: 0.357 nM; for `Cc1nc(C(=O)NCc2ccc(C(C)C)cc2)c(N)nc1-c1ncco1` [Ex-133, 3-amino-6-methyl-N-[4-(1-methylethyl)benzyl]-5-(1,3-oxazol-2-yl)pyrazine-2-carboxamide]: 2.59 nM.
The molecule `Cc1nc(C(=O)NCc2ccc(C3CC3)cc2)c(N)nc1-c1ncco1` [Ex-134, 3-amino-N-(4-cyclopropylbenzyl)-6-methyl-5-(1,3-oxazol-2-yl)pyrazine-2-carboxamide] had a Ki of 3.39 nM.
Then `Cc1cccc(CNC(=O)c2nc(C)c(-c3ncco3)nc2N)c1F` [Ex-135, 3-amino-N-(2-fluoro-3-methylbenzyl)-6-methyl-5-(1,3-oxazol-2-yl)pyrazine-2-carboxamide], with 0.169 nM; and `Cc1cc(C)c(CNC(=O)c2nc(C)c(-c3ncco3)nc2N)c(C)c1` [Ex-136, 3-amino-6-methyl-5-(1,3-oxazol-2-yl)-N-(2,4,6-trimethylbenzyl)pyrazine-2-carboxamide], with 0.267 nM.
The same measure for `Cc1cc(CNC(=O)c2nc(C)c(-c3ncco3)nc2N)ccc1F` [Ex-137, 3-amino-N-(4-fluoro-3-methylbenzyl)-6-methyl-5-(1,3-oxazol-2-yl)pyrazine-2-carboxamide]: 0.307 nM; for `Cc1nc(C(=O)N[C@H]2CCc3ccccc32)c(N)nc1-c1ncco1` [Ex-138, 3-amino-N-[(1S)-2,3-dihydro-1H-inden-1-yl]-6-methyl-5-(1,3-oxazol-2-yl)pyrazine-2-carboxamide]: 0.588 nM; for `CCc1ccc(CNC(=O)c2nc(C)c(-c3ncco3)nc2N)cc1` [Ex-139, 3-amino-N-(4-ethylbenzyl)-6-methyl-5-(1,3-oxazol-2-yl)pyrazine-2-carboxamide]: 3.03 nM.
Molecule `Cc1nc(C(=O)N[C@@H]2CCc3ccccc32)c(N)nc1-c1ncco1` [Ex-140, 3-amino-N-[(1R)-2,3-dihydro-1H-inden-1-yl]-6-methyl-5-(1,3-oxazol-2-yl)pyrazine-2-carboxamide] displayed a Ki of 0.225 nM.
`Cc1nc(C(=O)NCc2cccn2C)c(N)nc1-c1ncco1` [Ex-141, 3-amino-6-methyl-N-[(1-methyl-1H-pyrrol-2-yl)methyl]-5-(1,3-oxazol-2-yl)pyrazine-2-carboxamide] came in with an inhibition constant (Ki) of 0.391 nM.
In turn, `Cc1nc(C(=O)NCc2ccc(C)n2C)c(N)nc1-c1ncco1` [Ex-142, 3-amino-N-[(1,5-dimethyl-1H-pyrrol-2-yl)methyl]-6-methyl-5-(1,3-oxazol-2-yl)pyrazine-2-carboxamide] registered an inhibitory constant (Ki) of 0.704 nM.
Then `COc1cccc(CNC(=O)c2nc(C)c(-c3ncco3)nc2N)c1` [Ex-143, 3-amino-N-(3-methoxybenzyl)-6-methyl-5-(1,3-oxazol-2-yl)pyrazine-2-carboxamide], with 1.72 nM; and `COc1ccccc1CNC(=O)c1nc(C)c(-c2ncco2)nc1N` [Ex-144, 3-amino-N-(2-methoxybenzyl)-6-methyl-5-(1,3-oxazol-2-yl)pyrazine-2-carboxamide], with 0.382 nM.
Molecule `Cc1nc(C(=O)N[C@H]2COc3ccccc32)c(N)nc1-c1ncco1` [Ex-147, 3-amino-N-[(3R)-2,3-dihydro-1-benzofuran-3-yl]-6-methyl-5-(1,3-oxazol-2-yl)pyrazine-2-carboxamide] displayed a Ki of 0.601 nM.
The same measure for `COc1ccc(CNC(=O)c2nc(C)c(-c3ncco3)nc2N)cc1` [Ex-148, 3-amino-N-(4-methoxybenzyl)-6-methyl-5-(1,3-oxazol-2-yl)pyrazine-2-carboxamide]: 15.8 nM; for `Cc1nc(C(=O)NCc2nc3ccccc3s2)c(N)nc1-c1ncco1` [Ex-149, 3-amino-N-(1,3-benzothiazol-2-ylmethyl)-6-methyl-5-(1,3-oxazol-2-yl)pyrazine-2-carboxamide]: 0.855 nM; for `Cc1nc(C(=O)N2Cc3cncnc3C2)c(N)nc1-c1ncco1` [Ex-151, 3-(5,7-dihydro-6H-pyrrolo[3,4-d]pyrimidin-6-ylcarbonyl)-5-methyl-6-(1,3-oxazol-2-yl)pyrazin-2-amine]: 4.58 nM.
The same measure for `Cc1nc(C(=O)NCc2ccccc2O)c(N)nc1-c1ncco1` [Ex-153, 3-amino-N-(2-hydroxybenzyl)-6-methyl-5-(1,3-oxazol-2-yl)pyrazine-2-carboxamide]: 0.141 nM.
Then `Cc1ccc(O)c(CNC(=O)c2nc(C)c(-c3ncco3)nc2N)c1` [Ex-154, 3-amino-N-(2-hydroxy-5-methylbenzyl)-6-methyl-5-(1,3-oxazol-2-yl)pyrazine-2-carboxamide], with 0.125 nM; and `Cc1nc(C(=O)NCc2ccc(O)cc2)c(N)nc1-c1ncco1` [Ex-155, 3-amino-N-(4-hydroxybenzyl)-6-methyl-5-(1,3-oxazol-2-yl)pyrazine-2-carboxamide], with 13.9 nM; and `Cc1nc(C(=O)N[C@@H]2c3ccccc3C[C@@H]2O)c(N)nc1-c1ncco1` [Ex-156, 3-amino-N-[(1R,2S)-2-hydroxy-2,3-dihydro-1H-inden-1-yl]-6-methyl-5-(1,3-oxazol-2-yl)pyrazine-2-carboxamide], with 68.9 nM.
On to `Cc1nc(C(=O)N[C@@H]2COc3ccccc32)c(N)nc1-c1ncco1` [Ex-157, 3-amino-N-[(3S)-2,3-dihydro-1-benzofuran-3-yl]-6-methyl-5-(1,3-oxazol-2-yl)pyrazine-2-carboxamide], for which the affinity, expressed as Ki, was 0.601 nM.
Then `Cc1nc(C(=O)NCc2cccc(O)c2)c(N)nc1-c1ncco1` [Ex-158, 3-amino-N-(3-hydroxybenzyl)-6-methyl-5-(1,3-oxazol-2-yl)pyrazine-2-carboxamide], with 1.97 nM.
